Publication doi:10.1101/2025.06.05.658205v3, “AsCas12a Exhibits Intrinsic, DNA-Independent ATPase Activity” (biorxiv, 2025)

Biological target: T1, AsCas12a (Acidaminococcus sp. BV3L6, UniProt U2UMQ6)
T1 construct: gene cas12a; purified wild-type protein, no crRNA mentioned in assay
Experiment: radiometric TLC ATPase assay ([…] release)
Format: biochemical
Details: 200 µM cold ATP, 200 pM [γ-32P]ATP; 12 mM MgCl2, pH 7.5, 37 °C, 1 h; no DNA; labelled compound

T1 sequence (U2UMQ6 whole entry, looked up): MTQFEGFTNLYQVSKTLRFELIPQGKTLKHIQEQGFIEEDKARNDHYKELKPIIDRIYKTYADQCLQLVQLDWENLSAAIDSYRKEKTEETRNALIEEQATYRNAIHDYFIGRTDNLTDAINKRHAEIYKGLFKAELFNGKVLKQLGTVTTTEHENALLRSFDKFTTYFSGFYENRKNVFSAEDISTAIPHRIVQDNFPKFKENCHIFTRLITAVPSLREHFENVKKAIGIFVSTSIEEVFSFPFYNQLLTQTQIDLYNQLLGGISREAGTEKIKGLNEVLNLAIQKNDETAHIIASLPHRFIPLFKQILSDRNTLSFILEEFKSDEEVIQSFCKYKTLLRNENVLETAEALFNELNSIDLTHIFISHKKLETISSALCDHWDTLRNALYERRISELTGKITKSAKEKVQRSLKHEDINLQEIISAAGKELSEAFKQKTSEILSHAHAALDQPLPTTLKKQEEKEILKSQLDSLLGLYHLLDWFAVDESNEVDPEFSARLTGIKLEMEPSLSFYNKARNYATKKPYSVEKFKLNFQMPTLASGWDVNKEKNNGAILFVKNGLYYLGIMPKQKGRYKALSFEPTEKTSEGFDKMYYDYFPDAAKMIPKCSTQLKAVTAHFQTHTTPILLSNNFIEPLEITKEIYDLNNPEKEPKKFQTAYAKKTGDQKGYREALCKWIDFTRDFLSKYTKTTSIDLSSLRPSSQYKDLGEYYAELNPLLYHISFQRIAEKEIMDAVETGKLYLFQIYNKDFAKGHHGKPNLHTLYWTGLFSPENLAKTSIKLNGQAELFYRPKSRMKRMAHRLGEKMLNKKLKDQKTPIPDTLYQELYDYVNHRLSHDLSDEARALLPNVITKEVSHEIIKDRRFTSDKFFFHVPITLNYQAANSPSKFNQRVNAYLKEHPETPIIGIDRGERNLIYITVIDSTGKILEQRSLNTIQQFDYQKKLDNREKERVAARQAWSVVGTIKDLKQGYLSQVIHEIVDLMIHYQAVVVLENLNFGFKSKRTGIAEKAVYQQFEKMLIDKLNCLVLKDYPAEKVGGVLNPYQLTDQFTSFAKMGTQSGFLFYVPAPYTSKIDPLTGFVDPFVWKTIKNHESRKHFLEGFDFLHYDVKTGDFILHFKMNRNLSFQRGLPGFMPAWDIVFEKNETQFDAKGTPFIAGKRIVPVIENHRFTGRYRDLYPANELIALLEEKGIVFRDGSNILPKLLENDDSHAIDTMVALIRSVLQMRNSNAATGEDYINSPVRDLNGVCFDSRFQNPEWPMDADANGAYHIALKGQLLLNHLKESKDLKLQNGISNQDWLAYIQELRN

`Nc1ncnc2c1ncn2[C@@H]1O[C@H](COP(=O)(O)OP(=O)(O)OP(=O)(O)O)[C@@H](O)[C@H]1O` [ATP] was tested, and the “radiometric TLC ATPase assay (32Pi release)” value was “AsCas12a catalyzed ATP hydrolysis in a concentration and time-dependent manner”.
